Source: PubChem BioAssay (NCI)
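Interpolation was linear, between the two tested concentrations surrounding the appropriate level; five concentrations were tested over 48 hours in 96-well plates. TGI: total growth inhibition.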

Experiments:
Experiment in all cases: inhibition of tumour cell growth, NCI panel, 48 h
RPMI-8226 leukemia = tested on: RPMI-8226 leukemia
CCRF-CEM leukemia = tested on: CCRF-CEM leukemia
A498 renal = tested on: A498 renal
TK-10 renal = tested on: TK-10 renal
MOLT-4 leukemia = tested on: MOLT-4 leukemia
HCT-15 colon = tested on: HCT-15 colon
PC-3 prostate = tested on: PC-3 prostate
SNB-19 CNS = tested on: SNB-19 CNS
EKVX NSCLC = tested on: EKVX NSCLC
MDA-MB-231 breast = tested on: MDA-MB-231 breast
NCI-H460 lung = tested on: NCI-H460 lung
SK-MEL-28 melanoma = tested on: SK-MEL-28 melanoma
NCI-H226 lung = tested on: NCI-H226 lung
LOX IMVI melanoma = tested on: LOX IMVI melanoma
SF-539 CNS = tested on: SF-539 CNS
ACHN renal = tested on: ACHN renal
MDA-N = tested on: MDA-N
A549 NSCLC = tested on: A549 NSCLC
UO-31 renal = tested on: UO-31 renal
SK-OV-3 ovarian = tested on: SK-OV-3 ovarian
OVCAR-3 ovarian = tested on: OVCAR-3 ovarian
OVCAR-8 ovarian = tested on: OVCAR-8 ovarian
MALME-3M melanoma = tested on: MALME-3M melanoma
OVCAR-5 ovarian = tested on: OVCAR-5 ovarian
CAKI-1 renal = tested on: CAKI-1 renal
MDA-MB-435 = tested on: MDA-MB-435
UACC-257 melanoma = tested on: UACC-257 melanoma
NCI-H522 lung = tested on: NCI-H522 lung
HS 578T breast = tested on: HS 578T breast
786-0 renal = tested on: 786-0 renal
DU-145 prostate = tested on: DU-145 prostate
HOP-62 NSCLC = tested on: HOP-62 NSCLC
U251 CNS = tested on: U251 CNS
HL-60(TB) leukemia = tested on: HL-60(TB) leukemia
T-47D breast = tested on: T-47D breast
SF-268 CNS = tested on: SF-268 CNS
SF-295 CNS = tested on: SF-295 CNS
COLO 205 colon = tested on: COLO 205 colon
K-562 leukemia = tested on: K-562 leukemia
OVCAR-4 ovarian = tested on: OVCAR-4 ovarian
SK-MEL-2 melanoma = tested on: SK-MEL-2 melanoma
SK-MEL-5 melanoma = tested on: SK-MEL-5 melanoma
HOP-92 NSCLC = tested on: HOP-92 NSCLC
SN12C renal = tested on: SN12C renal
SNB-75 CNS = tested on: SNB-75 CNS
IGROV1 ovarian = tested on: IGROV1 ovarian
HT29 colon = tested on: HT29 colon
M14 melanoma = tested on: M14 melanoma
KM12 colon = tested on: KM12 colon
NCI-H23 lung = tested on: NCI-H23 lung
MCF7 breast = tested on: MCF7 breast
HCT-116 colon = tested on: HCT-116 colon
NCI/ADR-RES ovarian = tested on: NCI/ADR-RES ovarian
HCC-2998 colon = tested on: HCC-2998 colon
SW-620 colon = tested on: SW-620 colon
UACC-62 melanoma = tested on: UACC-62 melanoma
RXF 393 renal = tested on: RXF 393 renal
BT-549 breast = tested on: BT-549 breast
SR leukemia = tested on: SR leukemia

Compound: CN(C)CCCNC(=O)CNC(=O)c1cc(NC(=O)c2cc(NC(=O)c3cc(NC(=O)CCNC(=O)c4cc(NC(=O)c5cc(NC(=O)c6nccn6C)cn5C)cn4C)cn3C)cn2C)cn1C
- TGI (RPMI-8226 leukemia): > 100 µM
- TGI (CCRF-CEM leukemia): 49.2 µM
- TGI (A498 renal): > 100 µM
- TGI (TK-10 renal): > 100 µM
- TGI (MOLT-4 leukemia): 57 µM
- TGI (HCT-15 colon): > 100 µM
- TGI (PC-3 prostate): > 100 µM
- TGI (SNB-19 CNS): > 100 µM
- TGI (EKVX NSCLC): > 100 µM
- TGI (MDA-MB-231 breast): > 100 µM
- TGI (NCI-H460 lung): > 100 µM
- TGI (SK-MEL-28 melanoma): > 100 µM
- TGI (NCI-H226 lung): > 100 µM
- TGI (LOX IMVI melanoma): > 100 µM
- TGI (SF-539 CNS): > 100 µM
- TGI (ACHN renal): > 100 µM
- TGI (MDA-N): > 100 µM
- TGI (A549 NSCLC): > 100 µM
- TGI (UO-31 renal): > 100 µM
- TGI (SK-OV-3 ovarian): > 100 µM
- TGI (OVCAR-3 ovarian): > 100 µM
- TGI (OVCAR-8 ovarian): > 100 µM
- TGI (MALME-3M melanoma): > 100 µM
- TGI (OVCAR-5 ovarian): > 100 µM
- TGI (CAKI-1 renal): > 100 µM
- TGI (MDA-MB-435): > 100 µM
- TGI (UACC-257 melanoma): > 100 µM
- TGI (NCI-H522 lung): > 100 µM
- TGI (HS 578T breast): > 100 µM
- TGI (786-0 renal): > 100 µM
- TGI (DU-145 prostate): > 100 µM
- TGI (HOP-62 NSCLC): > 100 µM
- TGI (U251 CNS): > 100 µM
- TGI (HL-60(TB) leukemia): 94.1 µM
- TGI (T-47D breast): > 100 µM
- TGI (SF-268 CNS): > 100 µM
- TGI (SF-295 CNS): > 100 µM
- TGI (COLO 205 colon): > 100 µM
- TGI (K-562 leukemia): > 100 µM
- TGI (OVCAR-4 ovarian): > 100 µM
- TGI (SK-MEL-2 melanoma): > 100 µM
- TGI (SK-MEL-5 melanoma): > 100 µM
- TGI (HOP-92 NSCLC): > 100 µM
- TGI (SN12C renal): > 100 µM
- TGI (SNB-75 CNS): > 100 µM
- TGI (IGROV1 ovarian): > 100 µM
- TGI (HT29 colon): > 100 µM
- TGI (M14 melanoma): > 100 µM
- TGI (KM12 colon): > 100 µM
- TGI (NCI-H23 lung): > 100 µM
- TGI (MCF7 breast): > 100 µM
- TGI (HCT-116 colon): > 100 µM
- TGI (NCI/ADR-RES ovarian): > 100 µM
- TGI (HCC-2998 colon): > 100 µM
- TGI (SW-620 colon): > 100 µM

Compound: FC(F)(F)C1(C(F)(F)F)OC(Cl)(Cl)C(Cl)(Cl)O1
- TGI (A498 renal): > 10 µM
- TGI (TK-10 renal): > 10 µM
- TGI (HCT-15 colon): > 10 µM
- TGI (PC-3 prostate): > 10 µM
- TGI (SNB-19 CNS): > 10 µM
- TGI (EKVX NSCLC): > 10 µM
- TGI (MDA-MB-231 breast): > 10 µM
- TGI (NCI-H460 lung): > 10 µM
- TGI (SK-MEL-28 melanoma): > 10 µM
- TGI (NCI-H226 lung): > 10 µM
- TGI (LOX IMVI melanoma): > 10 µM
- TGI (SF-539 CNS): > 10 µM
- TGI (ACHN renal): > 10 µM
- TGI (MDA-N): > 10 µM
- TGI (A549 NSCLC): > 10 µM
- TGI (SK-OV-3 ovarian): > 10 µM
- TGI (OVCAR-3 ovarian): > 10 µM
- TGI (OVCAR-8 ovarian): > 10 µM
- TGI (MALME-3M melanoma): > 10 µM
- TGI (OVCAR-5 ovarian): > 10 µM
- TGI (CAKI-1 renal): > 10 µM
- TGI (MDA-MB-435): > 10 µM
- TGI (UACC-257 melanoma): > 10 µM
- TGI (NCI-H522 lung): > 10 µM
- TGI (HS 578T breast): > 10 µM
- TGI (786-0 renal): > 10 µM
- TGI (DU-145 prostate): > 10 µM
- TGI (HOP-62 NSCLC): > 10 µM
- TGI (U251 CNS): > 10 µM
- TGI (UACC-62 melanoma): > 10 µM
- TGI (T-47D breast): > 10 µM
- TGI (SF-268 CNS): > 10 µM
- TGI (SF-295 CNS): > 10 µM
- TGI (COLO 205 colon): > 10 µM
- TGI (OVCAR-4 ovarian): > 10 µM
- TGI (SK-MEL-2 melanoma): > 10 µM
- TGI (SK-MEL-5 melanoma): > 10 µM
- TGI (HOP-92 NSCLC): > 10 µM
- TGI (IGROV1 ovarian): > 10 µM
- TGI (HT29 colon): > 10 µM
- TGI (M14 melanoma): > 10 µM
- TGI (KM12 colon): > 10 µM
- TGI (RXF 393 renal): > 10 µM
- TGI (NCI-H23 lung): > 10 µM
- TGI (MCF7 breast): > 10 µM
- TGI (HCT-116 colon): > 10 µM
- TGI (NCI/ADR-RES ovarian): > 10 µM
- TGI (HCC-2998 colon): > 10 µM
- TGI (BT-549 breast): > 10 µM
- TGI (SW-620 colon): > 10 µM

Compound: CSCCCNC(=O)c1csc([C@@H](CSC)NC(=O)CCNC(=O)[C@@H](NC(=O)OCC(Br)(Br)Br)C(C)O)n1 (some centres not stated)
- TGI (CCRF-CEM leukemia): > 100 µM
- TGI (A498 renal): > 100 µM
- TGI (TK-10 renal): > 100 µM
- TGI (MOLT-4 leukemia): > 100 µM
- TGI (HCT-15 colon): > 100 µM
- TGI (PC-3 prostate): > 100 µM
- TGI (SNB-19 CNS): > 100 µM
- TGI (SR leukemia): > 100 µM
- TGI (EKVX NSCLC): > 100 µM
- TGI (MDA-MB-231 breast): > 100 µM
- TGI (NCI-H460 lung): > 100 µM
- TGI (SK-MEL-28 melanoma): > 100 µM
- TGI (NCI-H226 lung): > 100 µM
- TGI (LOX IMVI melanoma): > 100 µM
- TGI (SF-539 CNS): > 100 µM
- TGI (ACHN renal): > 100 µM
- TGI (MDA-N): > 100 µM
- TGI (A549 NSCLC): > 100 µM
- TGI (UO-31 renal): > 100 µM
- TGI (SK-OV-3 ovarian): > 100 µM
- TGI (OVCAR-3 ovarian): > 100 µM
- TGI (OVCAR-8 ovarian): > 100 µM
- TGI (MALME-3M melanoma): > 100 µM
- TGI (OVCAR-5 ovarian): > 100 µM
- TGI (CAKI-1 renal): > 100 µM
- TGI (MDA-MB-435): > 100 µM
- TGI (UACC-257 melanoma): > 100 µM
- TGI (NCI-H522 lung): > 100 µM
- TGI (HS 578T breast): > 100 µM
- TGI (786-0 renal): > 100 µM
- TGI (DU-145 prostate): > 100 µM
- TGI (HOP-62 NSCLC): > 100 µM
- TGI (U251 CNS): > 100 µM
- TGI (UACC-62 melanoma): > 100 µM
- TGI (HL-60(TB) leukemia): > 100 µM
- TGI (SF-268 CNS): > 100 µM
- TGI (SF-295 CNS): > 100 µM
- TGI (COLO 205 colon): > 100 µM
- TGI (K-562 leukemia): > 100 µM
- TGI (OVCAR-4 ovarian): > 100 µM
- TGI (SK-MEL-2 melanoma): > 100 µM
- TGI (SK-MEL-5 melanoma): > 100 µM
- TGI (HOP-92 NSCLC): > 100 µM
- TGI (SN12C renal): > 100 µM
- TGI (SNB-75 CNS): > 100 µM
- TGI (IGROV1 ovarian): > 100 µM
- TGI (HT29 colon): > 100 µM
- TGI (M14 melanoma): > 100 µM
- TGI (KM12 colon): > 100 µM
- TGI (RXF 393 renal): > 100 µM
- TGI (NCI-H23 lung): > 100 µM
- TGI (MCF7 breast): > 100 µM
- TGI (HCT-116 colon): > 100 µM
- TGI (NCI/ADR-RES ovarian): > 100 µM
- TGI (HCC-2998 colon): > 100 µM
- TGI (BT-549 breast): > 100 µM
- TGI (SW-620 colon): > 100 µM
